PMC5282547, “The Proline/Arginine Dipeptide from Hexanucleotide Repeat Expanded C9ORF72 Inhibits the Proteasome” (eNeuro, 2017)
Where no end group is shown, it is not given here.

Columns and labels:
[1] = system: human astrocytes; conditions: DPR applied repeatedly; ref Kwon et al. (2014); cited from earlier work
From the text: We draw a number of conclusions from these experiments.

[2] = system: total ubiquitylated protein; assay: Ubiquitylation assay (total cellular ubiquitin immunoblot); assay type: cell-based, rat; conditions: 2 µM, 2, 4, 8, 16 h; significant at 2, 8 and 16 h
Protocol: The ubiquitylation assay involved acute time point treatments with PR20. 16 h prior to scheduled lysis, two dishes were treated to a final concentration of 2 μM PR20 using the methods described in the PR20 treatment for biochemical assays subsection. This was repeated 8 h prior to lysis, 4 h prior to lysis, and 2 h prior to lysis. Samples were then lysed in RIPA buffer as described in Cell lysis for ubiquitin blots and processed for Western blot analysis.
(§1) Ubiquitin analysis requires the use of deubiquitinase (DUB) inhibitors. Lysis without these inhibitors runs the risk of degradation of the substrates to be targeted. As such, N-ethylmaleimide (Sigma), a potent DUB inhibitor, was used in the lysis buffer. […] The remainder of the lysis procedure follows Cell lysis.

[3] = system: KDEL-tagged chaperones BiP and PDI; assay: Immunoblot for ER stress; assay type: cell-based, rat; conditions: 2 µM, 48 h, immunoblot normalized to actin
Protocol: All plates were incubated with PR20 for 48 h.

[4] = system: motor neurons; assay: Motor neuron survival in mixed spinal cord cultures (SMI32 counts), LD50 determination; assay type: cell-based, rat
Protocol: Mixed spinal cord neuron cultures were prepared as described previously ([Mojsilovic-Petrovic et al., 2006]). Briefly, an astrocyte feeder layer was prepared from the cortex of newborn Sprague Dawley rat pups [postnatal day 2 (P2)] and grown to ∼80% confluency. Subsequently, dissociated embryonic day 15 (E15) spinal cord neurons were added. One to two days later, AraC ([…]) (catalog #C6645; Sigma) was added for 24 h to arrest astrocyte proliferation. Cultures were maintained in glia-conditioned medium supplemented with the following trophic factors (1.0 ng/ml each): human neurotrophin-3, human neurotrophin-4, human brain-derived neurotrophic factor, and rat ciliary neurotrophic factor (Alomone Labs). Half of the culture medium was replaced on a biweekly basis.
Days in vitro (DIV)14 mixed spinal cord cultures were exposed to PR20 or GR20 by addition of synthetic peptide to the media one time. Cultures were fixed 5 d later with freshly prepared 4% paraformaldehyde for 20 min, washed extensively with 0.1 M PBS, pH 7.4, and immunostained with SMI32 to identify motor neurons. Immunopositive cells >25 µm in diameter are motor neurons based on their costaining for peripherin, ChAT, and islet 1/2 ([Mojsilovic-Petrovic et al., 2006]). Motor neurons were counted in three nonoverlapping, randomly selected fields on a coverslip using a 5[times objective, and the values from a single coverslip averaged. The results of 3-5 independently treated coverslips were the basis and means and variance used in statistical analysis. Each experiment was repeated with independently generated culture 4+ times ([Mojsilovic-Petrovic et al., 2006]).
Motor neuron survival 5 d later was determined. Once the approximate LD50 was determined, we repeated the analysis with more closely spaced concentrations for a more precise definition of the LD50. Determination of the LD50 of MG132 was accomplished in an identical manner.

[5] = system: ubiquitin-proteasome system; assay: MG-132 flux assay (flux of ubiquitylated substrates through the UPS); assay type: cell-based, rat
Protocol: MG-132 (Sigma) was used to inhibit proteasomal function. Cells were initially treated with PR20 for a total of 48 h using the method outlined in PR20 treatment for biochemical assays. Four hours prior to lysis, these cells were treated with MG-132 or vehicle. The MG-132 was kept in a stock solution in DMSO. This was added directly to culture to achieve a final concentration of 5 μM. Cells were then lysed in RIPA buffer and immunoblotted for ubiquitin.
as §1
To test for group differences in the flux assay, a permutation test was used. This is a nonparametric statistical test that was implemented in MATLAB. […] The test first quantifies this by taking the average of each experimental group and then finding the difference of ratios. It then permutes two samples located in two groups randomly, and determines that difference between averages again. This is repeated 50,000 times, and a histogram is plotted. This histogram represents the distribution of random noise in the sample. Since a higher difference in the +MG132/−MG132 ratio is a more “significant” result, the percentage of the random noise produced from 50,000 permutations that is higher in magnitude than the true difference (calculated from un-permuted data) is the p value.
Permutations of a data point in a +MG132 into a group labeled −MG132 (or vice versa) were not allowed. […] Thus, this group difference was not interesting to us.

PRPRPRPRPRPRPRPRPRPRPRPRPRPRPRPRPRPRPRPRYPYDVPDYA [PR20]
LD50 that kills human astrocytes [1]: 8.4 µM | total ubiquitylated protein levels over time [2]: progressive increase | ER stress (BiP and PDI abundance) versus vehicle [3]: no statistically significant differences | motor neuron death at the 48-h time point ([4]; 2 µM PR20, 48 h): No significant motor neuron death | LD50, death of motor neurons ([4]; single application to DIV14 mixed spinal cord cultures on astrocyte feeder layer, motor neuron survival 5 d later): 2.0 µM | proteasomal flux versus vehicle after 2 h of exposure ([5]; 2 h PR20, ±MG132, n = 6 per group, p = 0.38): no statistically significance | proteasomal flux (difference in ubiquitin +/- MG-132) versus vehicle ([5]; peptide 48 h (PR20 2 µM), then MG-132 5 µM or vehicle 4 h, permutation test): reduced
